From patent US20210179989A1, “SYSTEM AND METHODS FOR OPTOGENETIC EVALUATION OF HUMAN NEUROMUSCULAR FUNCTION” (priority 2018, published 2021) come the findings set out here.

In this test the test system is acetylcholine receptors in the NMJ. Type of test: cell-based, human.

For α-bungarotoxin [BTX], the “average number of spontaneous contractions after treatment” value is on record as 0.17±0.17; the “average score (corrected fraction of effective light pulses), after treatment” value is listed as 0.01±0.01; the “light-triggered and spontaneous contractions” value is reported as “completely stopped”.
